Experimental data taken from US8129402B2 (priority 2002, dated 2012).

Target: PrP^sc in ScN2a-22L cells (Mus musculus, UniProt P04925)
Type: cell-based
Details: ScN2a-22L cells, NIH Image J quantification

PrP^sc in ScN2a-22L cells, sequence (P04925 23-230 limits assumed): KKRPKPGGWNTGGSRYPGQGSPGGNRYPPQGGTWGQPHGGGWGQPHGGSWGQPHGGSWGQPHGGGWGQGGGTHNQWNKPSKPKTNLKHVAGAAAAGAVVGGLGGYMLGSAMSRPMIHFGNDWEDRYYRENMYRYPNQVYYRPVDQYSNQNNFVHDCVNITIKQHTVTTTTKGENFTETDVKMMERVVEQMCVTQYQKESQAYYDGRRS

## CN(C)CCCN1c2ccccc2Sc2ccc(Cl)cc21 [chlorpromazine]
  inhibition of the accumulation of PrPsc (resistant to proteinase K): 96%
